Results: patent US9119842B2, “Therapeutic meso-biliverdin IXα compositions and associated methods” (Utah State University, priority 2012, dated 2015)

Legend:
[1] = target: T1, recombinant human liver BVR (Homo sapiens, UniProt P53004); assay: BVR enzyme assay (Biliverdin Reduction Kit); type: biochemical; conditions: 10-fold dilution of 100 μg mL^−1, enzyme and NADPH, spectrophotometric 300-800 nm, up to 360 minutes
T1 construct: purchased Sigma-Aldrich (St. Louis, Mo.) CS1100; host or cells: Escherichia coli
T1 sequence (P53004 3-296): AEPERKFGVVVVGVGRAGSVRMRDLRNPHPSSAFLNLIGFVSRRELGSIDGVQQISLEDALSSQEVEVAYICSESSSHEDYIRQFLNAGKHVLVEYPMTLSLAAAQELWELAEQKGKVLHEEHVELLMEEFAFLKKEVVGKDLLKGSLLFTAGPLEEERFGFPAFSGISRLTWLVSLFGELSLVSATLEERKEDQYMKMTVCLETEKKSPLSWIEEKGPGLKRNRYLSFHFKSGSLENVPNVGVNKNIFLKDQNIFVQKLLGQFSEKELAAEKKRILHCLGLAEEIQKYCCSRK
Protocol: The Sigma-Aldrich (St. Louis, Mo.) Biliverdin Reduction Kit (catalog #CS1100) and method was used to determine biliverdin reductase (“BVR”) activities with MBV, BV IXα, or phycocyanobilin as substrates. The kit-supplied enzyme was human liver BVR expressed in a recombinant Escherichia coli strain. Before use, MBV, BV IXα, or phycocyanobilin, each at 100 μg mL^−1 in methanol, were diluted 10-fold in the kit-supplied assay buffer, mixed with enzyme and NADPH, and conversion to mesobilirubin IXα, bilirubin IXα, or phycocyanobilirubin was measured spectrophotometrically between 300 and 800 nm for up to 360 minutes.

[2] = test system: pancreata / islet cells of donor rats; assay: Islet cell yields after treatment of donor pancreata; type: in vivo, rat (Lewis); conditions: for Islet yield: P<0.05 vs control; for Islet yield at 100 μM relative to 10 μM: 100 μM through the pancreatic duct
Protocol: MBV and BV IXα (obtained from Frontier Scientific, Inc., Logan Utah) (both at 1, 10, or 100 μM) were administered to IVC-dissected animals through the pancreatic duct at 37° C. Control animals received no treatment. Pancreata were removed from donor rats (Lewis, BW>300 g), incubated with University of Wisconsin solution and preserved using the two-layer method. See Ito et al., Improvement of canine islet yield by donor pancreas infusion with a p38MAPK inhibitor, Transplantation 86(2): 321-329 (2008). After 20 to 22 hours, islet cells were isolated using the 2-step digestion method after distention with collagenase and then purified by discontinuous Ficoll gradient centrifugation in a COBE 2991 cell processor. See Matsumoto et al., Improvement of pancreatic islet cell isolation for transplantation, Proc. (Bayl. Univ. Med. Cent.) 20(4): 357-362 (2007). Islet cells were counted microscopically and the numbers converted to IEQ (number of islets equivalent to 150 um in diameter.

[3] = test system: transplanted islet cells in recipient rats; assay: Treatment of donor pancreata followed by islet cell autotransplantation; type: in vivo, rat (Lewis)
Protocol: Pancreata removed from donor rats (Lewis, BW>300 g) were infused with University of Wisconsin solution containing MBV or BV IXα at 1, 10, or 100 μM through the pancreatic duct and preserved using the 2-layer method in Hank's balanced salt solution containing 5% autologous serum as described in Example 5. After 20 to 22 hours, islets were isolated and 3000 IEQ/kg were autotransplanted by infusion into the portal vein of the corresponding rat.

[4] = test system: HRT-18 colon cancer cells; assay: HRT-18 colon cancer cell proliferation in vitro; type: cell-based; conditions: 1, 10 and 100 μM vs PBS control; example in present tense
Protocol: (§1) HRT-18 cells are seeded in 6-well plates in a concentration of 25×10^4 cells per well. After 24 hours, incubation, cells are treated with MBV IXα (1, 10, and 100 μM) or phosphate buffered saline (PBS) as a control. Cells are washed, detached with trypsin and resolved in 1 mL of growth media. 100 μL of […] are then analyzed for cell number, viability and cell size. In a xenograft colonic tumor model (see Ollinger et al., Bilirubin Inhibits Tumor Cell Growth via Activation of ERK, Cell Cycle 6:3078-3085 (2007)), 2.5×10^6 HRT 18 colon cancer cells are injected subcutaneously into the lower flank of BALB/c nude mice. At 14 days, MBV treatment is begun by injection of 1, 10 and 100 mg/kg body weight or PBS (controls) twice daily intraperitoneally and tumor diameters are measured daily using a caliper.

[5] = test system: HRT 18 colon cancer cells xenograft; assay: Xenograft colonic tumor model; type: in vivo, BALB/c nude mice; conditions: 1, 10 and 100 mg/kg twice daily intraperitoneally vs PBS; example in present tense
Protocol: as §1

db/db and obese mice = assay: Glucose tolerance in type 2 diabetes, db/db and obese mice; type: in vivo; conditions: example in present tense
Protocol: MBV (2, 20 and 100 mg kg^−1 daily) is orally administered to 5-week-old db/db and obese mice for 4 weeks. Control mice are given the same feed without added MBV. After 4 weeks, glucose tolerance and insulin tolerance tests are performed. See Ikeda et al., Biliverdin protects against the deterioration of glucose tolerance in db/db mice, Diabetologia 54:2183-2191 (2011). Insulin content is evaluated by immunostaining and ELISA. Oxidative stress markers (8-hydroxy-2′-deoxyguansosine and dihydroethidium staining) and expression of […] are evaluated in isolated islets.

[6] = test system: Rat thoracic aortic vascular smooth muscle (A7r5) cells; assay: Suppression of angiotensin II-induced inflammation in A7r5 cells (superoxide anion, NADH/NADPH oxidase); type: cell-based; conditions: angiotensin II-treated A7r5 cells; example in present tense
Protocol: Rat thoracic aortic vascular smooth muscle (A7r5) cells cultured in Dulbecco's modified Eagle's medium supplemented with 10% fetal calf serum and 2 mM glutamine are exposed to various concentrations of angiotensin II and MBV for various lengths of time before harvesting. The cells are scraped into balanced salt solution, washed twice by centrifugation, and finally suspended at a density of 2×10^6 cells per mL in the same solution containing 10 mM glucose and 1 mg per mL bovine serum albumin. Superoxide anion levels (of suspensions with 9×10^5 cells) are measured with a luminometer and a commercial luminogen-based detection kit (LumiMax, Agilent Technologies. Inc.).
Angiotensin II and MBV-treated cells suspended in phosphate-buffered saline (with protease inhibitors) are disrupted at ice temperature using a Dounce homogenizer. The cell extracts are fractionated into microsomal membrane and cytosol fractions by standard differential centrifugation procedures. Microsomes, containing plasma and mitochondrial membranes, are recovered as pellets after centrifugation at 29,100 g for 20 min at 4° C. NADH/NADPH oxidase activities of the microsomal fractions are measured with a luminometer and a commercial luminogen-based kit (LumiMax, Agilent Technologies. Inc.).

[7] = 1 μM through the pancreatic duct
[8] = 10 μM through the pancreatic duct
[9] = infusion of pancreata through the duct before preservation

Row | Compound | BVR activity with the compound as substrate (conversion to reduced product) [1] | Increase of islet yield over non-treated controls ([2]; 1 μM) [fold] | Islet yield [2, 7] [IEQ/g] | Increase of islet yield over non-treated controls ([2]; 10 μM) [fold] | Islet yield [2, 8] [IEQ/g] | Islet yield at 100 μM relative to 10 μM [2] | Islet cell yields (IEQ values) assessed by laser scanning cytometry ([3]; MBV-treated donor pancreata vs untreated control pancreata) | Tumor necrosis factor α expression (real-time RT-PCR) ([3]; MBV-treated group vs controls) | Plasma C peptide levels after glucagon challenge ([3]; animals receiving MBV-treated islets vs islets from untreated control pancreata) | Adverse effect on islet function [3, 9] | Islet cell apoptosis [3, 9] | Glycemia of recipient rats ([3]; rats transplanted with MBV-treated islets vs untreated islets) | HRT-18 colonic cell proliferation in vitro [4] | Xenograft tumor formation in vivo [5] | Development of hyperglycemia and glucose intolerance (db/db and obese mice; 2, 20 and 100 mg kg^−1 daily orally, 4 weeks) | Levels of oxidative stress markers and NADPH oxidase activities (db/db and obese mice; oral feeding 4 weeks, compared to controls) | Apoptosis and Bax expression in islets from db/db mice (db/db and obese mice; oral feeding 4 weeks) | Insulin levels and Pdxl expression (db/db and obese mice; oral feeding 4 weeks) | Angiotensin II-induced inflammatory processes (NADH/NADPH oxidase activation, superoxide anion production) [6]
1 | meso-biliverdin IXα [MBV] | kinetics that resembled those for BV IXα conversion to bilirubin IXα | 1.87 | 1599±475 | 1.54 | 1318±804 | did not increase islet yields beyond those with 10 μM concentration | higher | significantly lower | higher | no adverse effect on islet function | prevented islet cell apoptosis | more euglycemic | reduces | reduces | at least partially prevents | lower and normal compared to those of controls | decreases | increases | suppresses these inflammatory processes
2 | C=CC1=C(C)/C(=C\c2[nH]c(/C=C3N=C(/C=C4/NC(=O)C(C)=C4C=C)C(C)=C/3CCC(=O)O)c(CCC(=O)O)c2C)NC1=O [BV IXα, Biliverdin (“BV”) IXα, reference compound] |  | 1.04 | 1328±358 | 1.24 | 1616±451 | did not increase islet yields beyond those with 10 μM concentration |  |  |  |  |  |  |  |  |  |  |  |  | 
3 | C/C=C1/C(=C\c2[nH]c(/C=C3N=C(/C=C4/NC(=O)C(CC)=C4C)C(C)=C/3CCC(=O)O)c(CCC(=O)O)c2C)NC(=O)C1C (stereo not shown) [phycocyanobilin, reference compound] | poor and relatively inactive catalytic substrate |  |  |  |  |  |  |  |  |  |  |  |  |  |  |  |  |  | 
